Source: PubChem BioAssay (NCI)
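These data come from cells grown in 96-well plates and exposed to compound for 48 hours at five concentrations. GI50 marks 50% less growth. The concentration for full growth arrest is given as TGI.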

Assays:
Experiment in all cases: NCI tumour cell line growth inhibition, 48 h
[1] = system: BT-549 breast
[2] = system: COLO 205 colon
[3] = system: DU-145 prostate
[4] = system: HCT-116 colon
[5] = system: LOX IMVI melanoma
[6] = system: NCI-H23 lung
[7] = system: OVCAR-5 ovarian
[8] = system: RPMI-8226 leukemia
[9] = system: SN12C renal
[10] = system: UACC-257 melanoma

CCN(CC)CCCC(C)N=c1cc(Nc2cc(=NC(C)CCCN(CC)CC)c3cc(OC)ccc3o2)oc2ccc(OC)cc12 (stereo not given)
GI50 [1]: 3.16 µM | TGI [1]: 9.49 µM | GI50 [2]: 0.632 µM | TGI [2]: 1.36 µM | GI50 [3]: 1.17 µM | TGI [3]: 3.19 µM | GI50 [4]: 0.683 µM | TGI [4]: 1.81 µM | GI50 [5]: 1.02 µM | TGI [5]: 2.29 µM | GI50 [6]: 3.18 µM | TGI [6]: 12.7 µM | GI50 [7]: 0.89 µM | TGI [7]: 2.38 µM | GI50 [8]: 1.24 µM | TGI [8]: 3.41 µM | GI50 [9]: 1.4 µM | TGI [9]: 11.8 µM | GI50 [10]: 0.872 µM | TGI [10]: 1.67 µM

COC(=O)/C=C/c1cn(C(C)=O)c2ccc(Br)cc12
GI50 [1]: 17.2 µM | TGI [1]: 83.6 µM | GI50 [2]: 24.8 µM | TGI [2]: > 85 µM | GI50 [3]: 32.5 µM | TGI [3]: > 100 µM | GI50 [4]: 32.6 µM | TGI [4]: > 100 µM | GI50 [5]: 17.9 µM | TGI [5]: > 77.9 µM | GI50 [6]: 27.9 µM | TGI [6]: > 100 µM | GI50 [7]: 31 µM | TGI [7]: > 83.3 µM | GI50 [8]: 19 µM | TGI [8]: > 100 µM | GI50 [9]: 31.6 µM | TGI [9]: > 100 µM | GI50 [10]: 35.6 µM | TGI [10]: > 100 µM

Cc1cc(Oc2ccc3nc(COc4ccc(CC5SC(=O)NC5=O)cc4)n(C)c3c2)cc(C)c1N (stereo not given)
GI50 [1]: 24.2 µM | TGI [1]: > 79.2 µM | GI50 [2]: 32.1 µM | TGI [2]: > 100 µM | GI50 [3]: 45.8 µM | TGI [3]: > 100 µM | GI50 [4]: 26.7 µM | TGI [4]: > 85.3 µM | GI50 [5]: 17.2 µM | TGI [5]: > 71.3 µM | GI50 [6]: 24.2 µM | TGI [6]: > 72.2 µM | GI50 [7]: > 63.7 µM | TGI [7]: > 100 µM | GI50 [8]: 9.73 µM | TGI [8]: 45.4 µM | GI50 [9]: 44.1 µM | TGI [9]: > 100 µM | GI50 [10]: 30.8 µM | TGI [10]: > 75.5 µM

N#CS.N=C=S.N=C=S.[Cu+2].[NH2-].[NH2-].[NH2-].[NH2-].c1ccc2ncccc2c1
GI50 [1]: > 100 µM | TGI [1]: > 100 µM | GI50 [2]: > 100 µM | TGI [2]: > 100 µM | GI50 [3]: 17.3 µM | TGI [3]: 36.1 µM | GI50 [4]: > 100 µM | TGI [4]: > 100 µM | GI50 [5]: 43.3 µM | TGI [5]: > 100 µM | GI50 [6]: > 100 µM | TGI [6]: > 100 µM | GI50 [7]: 21.6 µM | TGI [7]: 41 µM | GI50 [8]: > 100 µM | TGI [8]: > 100 µM | GI50 [9]: > 100 µM | TGI [9]: > 100 µM | GI50 [10]: > 100 µM | TGI [10]: > 100 µM
